Experimental data published in patent US20240010681A1, “PEPTIDES AND METHODS OF USE” (REALTA LIFE SCIENCES, INC., priority 2020, published 2024).

Experiment: Pharmacokinetics, metabolite profiles and excretion of [14C]-PIC1-dPEG24 after single IV dose
Type: in vivo, rat
Protocol: […]. The six rats in Group 3 and Group 4 were further divided into two subgroups for serial blood collections at 10, 30 min and 1, 2, 3, 4, 6, 8, 24, and 48 hr. Blood was pooled by equal volume across animals at each time point, and aliquots (˜200 μL) of pooled blood were removed at each time point for total radioactivity, and the rest of blood samples were centrifuged to obtain plasma. Bile, urine, feces, and cage wash samples were collected up to 72 hr in bile duct cannulated (BDC) rats, and up to 168 hr in intact rats, and terminal blood samples were collected at the end of study (72 hr or 168 hr post-doses). The total radioactivity concentrations in the excreta, blood and plasma were determined by homogenization, combustion and/or liquid scintillation counting (LSC). The metabolite profiles and structure characterization were conducted in pooled plasma, urine, and bile samples using LC-UV/MS as well as radioactive detection. […].
The radioactive profiles of rat plasma samples for the low dose group and the high dose group were qualitatively similar.

CC[C@H](C)[C@H](N)C(=O)N[C@@H](C)C(=O)N[C@@H](CC(C)C)C(=O)N[C@H](C(=O)N[C@@H](CC(C)C)C(=O)N[C@@H](CCC(=O)O)C(=O)N1CCC[C@H]1C(=O)N[C@H](C(=O)N[C@@H](CS)C(=O)N[C@@H](CS)C(=O)N[C@@H](CCC(N)=O)C(=O)N[C@@H](CCC(=O)O)C(=O)N[C@@H](CCCNC(=N)N)C(=O)N[C@@H](C)C(=O)N[C@@H](C)C(=O)NCCOCCOCCOCCOCCOCCOCCOCCOCCOCCOCCOCCOCCOCCOCCOCCOCCOCCOCCOCCOCCOCCOCCOCCOCCC(=O)O)[C@@H](C)CC)[C@@H](C)CC [[^14C]-PIC1-dPEG24]
unchanged parent compound in urine (20 and 200 mg/kg dose): not detectable
unchanged parent compound and M2768 together in pooled plasma (8 hr time point, small radioactive peak at 30 min post-IV-injection): still detectable
route of elimination of related radioactivity (male BDC and intact rats, single IV 20 and 200 mg/kg): urinary excretion was major route of elimination
half-life (rat, in vivo, intact rats, IV 20 and 200 mg/kg, read-out: plasma elimination half-lives for total radioactivity): ≥ 40 h
dosed radioactivity recovered within 24 hr post-dose (single IV 20 or 200 mg/kg, mainly via urine): > 70 % of the dose
